Reference: patent US6995154B2, “Heterocyclic topoisomerase poisons” (Rutgers, The State University of New Jersey, priority 1997, dated 2006)

How the values were obtained:
[1] = test system: CPT-K5 (camptothecin-resistant variant of RPMI 8402); experiment: Test B. MTT cytotoxicity assay (MTA), CPT-K5; type: cell-based, human; conditions: continuous drug exposure, MTT at end of fourth day
Description: (§1) Test B. Cytotoxicity Assay
(§2) Cytotoxicity was determined using the MTT-microtiter plate tetrazolinium cytotoxicity assay (MTA) (See Chen A. Y. et al. Cancer Res. 1993, 53, 1332; Mosmann, T. J., J. Immunol. Methods 1983, 65, 55; and Carmichael, J. et al. Cancer Res. 1987, 47, 936). The human lymphoblast RPMI 8402 and its camptothecin-resistant variant cell line, CPT-K5 were provided by Dr. Toshiwo Andoh (Aichi Cancer Center Research Institute, Nagoya, Japan) (see Andoh, T.; Okada, K. “Drug resistance mechanisms of topoisomerase I drugs,” Adv. in Pharmacology 1994, 29B, 93. The cytotoxicity assay was performed using 96-well microtiter plates. Cells were grown in suspension at 37° C. in 5% CO2 and maintained by regular passage in RPMI medium supplemented with 10% heat-inactivated fetal bovine serum, L-glutamine (2 mM), penicillin (100 U/mL), and streptomycin (0.1 mg/mL). For determination of IC50, cells were exposed continuously with varying concentrations of drug and MTT assays were performed at the end of the fourth day.

RPMI 8402 cells = experiment: Test B. MTT cytotoxicity assay (MTA), RPMI 8402; type: cell-based; conditions: RPMI 8402 human lymphoblast; continuous drug exposure, MTT at end of fourth day
Description: as §1, §2

human topoisomerase I = molecular target: T1, human topoisomerase I (Homo sapiens, UniProt P11387); experiment: Test A. Topoisomerase I Cleavage Assay; type: biochemical; conditions: concentration relative to compound 5 (arbitrarily assumed as 1) producing the same cleavage on plasmid DNA with human topoisomerase I
T1 construct: unnamed fusion partner (recombinant fusion protein); made in house
T1 sequence (P11387 1-765): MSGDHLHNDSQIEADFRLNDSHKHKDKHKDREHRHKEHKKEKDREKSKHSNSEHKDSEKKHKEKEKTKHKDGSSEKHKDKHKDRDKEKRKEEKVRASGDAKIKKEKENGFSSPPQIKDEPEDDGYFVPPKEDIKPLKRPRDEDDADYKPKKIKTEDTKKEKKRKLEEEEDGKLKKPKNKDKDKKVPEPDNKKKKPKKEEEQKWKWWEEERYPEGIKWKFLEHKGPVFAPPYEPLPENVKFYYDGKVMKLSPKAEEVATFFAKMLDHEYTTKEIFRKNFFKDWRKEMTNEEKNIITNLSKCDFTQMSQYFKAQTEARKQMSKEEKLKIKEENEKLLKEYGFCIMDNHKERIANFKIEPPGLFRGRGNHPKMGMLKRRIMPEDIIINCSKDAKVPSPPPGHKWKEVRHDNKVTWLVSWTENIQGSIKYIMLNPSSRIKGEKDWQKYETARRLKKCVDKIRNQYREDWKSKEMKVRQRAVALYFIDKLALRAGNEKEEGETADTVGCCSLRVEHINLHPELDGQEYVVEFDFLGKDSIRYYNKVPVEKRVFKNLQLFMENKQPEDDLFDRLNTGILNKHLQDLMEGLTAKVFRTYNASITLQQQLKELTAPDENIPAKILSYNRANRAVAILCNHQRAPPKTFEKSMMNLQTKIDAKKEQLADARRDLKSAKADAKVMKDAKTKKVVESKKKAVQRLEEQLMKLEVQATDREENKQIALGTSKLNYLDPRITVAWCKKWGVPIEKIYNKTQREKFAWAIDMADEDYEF
Description: Test A. Topoisomerase I Cleavage Assay
Representative compounds of the invention were evaluated in a cleavage assay using recombinant topoisomerases I. This assay was preformed as described by B. Gatto et al. Cancer Res., 1996, 56, 2795–2800. Human topoisomerase I was isolated as a recombinant fusion protein using a T7 expression system. Plasmid YEpG was purified by the alkali lysis method followed by phenol deproteination and CsCl/ethidium isopycnic centrifugation as described by Maniatis, T.; Fritsch, E. F.; Sambrook, J. Molecular Cloning, a Laboratory Manual; Cold Spring Harbor Laboratory: Cold Spring Harbor, N.Y. 1982; pp 149–185. The end-labeling of the plasmid was accomplished by digestion with a restriction enzyme followed by end-filling with Klenow polymerase as previously described by Liu, L. F.; Rowe, T. C.; Yang, L.; Tewey, K. M.; Chen, G. L. “Cleavage of DNA by mammalian topoisomerase II,” J. Biol. Chem. 1983, 258, 15365. IC50 values were calculated after 4 days of continuous drug exposure. Topoisomerase I cleavage values are reported as REC, Relative Effective Concentration (i.e., concentrations relative to compound 5, whose value is arbitrarily assumed as 1) that is able to produce the same cleavage on the plasmid DNA in the presence of human topoisomerase I.

Row | SMILES | IC50 [1] [nM] | IC50 (RPMI 8402 cells) [nM] | Topo I-mediated DNA cleavage (REC, Relative Effective Concentration) (human topoisomerase I)
1 | c1ccc(-c2ccc3[nH]c(-c4ccc5[nH]c(-c6ccc7[nH]nnc7c6)nc5c4)nc3c2)cc1 [Compound 2, 5-Phenyl-2′-(benzotriazol-5-yl)-bibenzimidazole] | 470 | 470 | 1
2 | c1ccc(-c2ccc3[nH]c(-c4ccc5[nH]c(-c6ccc7nccnc7c6)nc5c4)nc3c2)cc1 [Compound 3, 5-Phenyl-2′-(quinoxaline-6-yl)-bibenzimidazole] | 21000 | 2300 | 1
3 | O=c1[nH]c2ccc(-c3nc4cc(-c5nc6cc(-c7ccccc7)ccc6[nH]5)ccc4[nH]3)cc2[nH]c1=O [Compound 4, 5-Phenyl-2′-(quinoxalinedione-6-yl)bibenzimidazole] | > 20000 | 20000 | 
